Measured values reported in patent EP3118613B1, “ELECTRIC COMPONENT WITH ORGANIC PART” (ACREO SWEDISH ICT AB, priority 2015, dated 2017).
Entries after “also recorded” stand apart in the source; their conditions may differ.

Key:
[1] = Cyclic voltammetry, onset potential of polymerization; assay type: physicochemical; details: 1 mg/ml in 0.01 M NaCl, ITO working electrode, Ag/AgCl reference, 50 mV/s
Method: In order to define the on-set potential of the polymerization of the trimer a three electrode setup was used. The working electrode is an ITO coated glass, the counter electrode is a Platinum sheet and the reference electrode is an Ag/AgCl saturated electrode. The electrolyte was 1mg/ml of compound 1 in 0.01M NaCl. The active area of the ITO was 21mm x 8mm. A cyclic voltametry was performed in order to define the onset potential. The potential was applied between the working and the reference electrode while the current was measured between the working and the counter electrode. The potential was scanned from +0.5V to -0.5V, starting from 0V with a scan rate of 50mV/s. During the first scan current increases at around +0.3V defining the onset potential of the polymerization were observed. The polymer is deposited on the active area of the ITO coated glass.
In order to define the on-set potential of the polymerization of the trimer we used a three electrode setup. The working electrode is an ITO coated glass, the counter electrode is a Platinum sheet and the reference electrode is a Ag/AgCl saturated electrode. The electrolyte was 1 mg/ml of compound 1 in 0.01 M NaCl. The active area of the ITO was 21 mm x 8 mm. […] The potential was applied between the working and the reference electrode while the current was measured between the working and the counter electrode. […]

[2] = Two-probe conductivity measurement of conducting wires in rose xylem; assay type: physicochemical, Rosa floribunda; details: xylem wires in rose stem, two Au probes
Method: We chose to use cuttings of Rosa floribunda (garden rose) as our model plant system. The lower part of a rose stem was cut and the fresh cross section was immersed in an aqueous PEDOT-S:H solution for 24-48 h (Fig. 7A), during which time the PEDOT-S:H solution was taken up into the xylem vascular channel and transported apically. The rose was taken from the solution and rinsed in water. The outer bark, cortex and phloem of the bottom part of the stem were then gently peeled off, exposing dark continuous lines along individual 20-100 µm wide xylem channels (Fig. 7B-D). These "wires" extended more than 5 cm along the stem. […] The conductivity of PEDOT-S:H wires was measured using two Au probes applied into individual PEDOT-S:H xylem wires along the stem (Fig. 7D). From the linear fit of resistance versus distance between the contacts, we found electrical conductivity reading 0.13 S/cm with contact resistance ∼10 kΩ (Fig. 7E). […]
Figure 29A is an external views of a plant part, in this case the steam where the epidermis has been peeled off, also showing two gold plated microelectrodes 2300 used to contact and penetrate a surface of the stem in order to reach the xylem channel. […] This is the currently highest measured electronic conductivity in a plant. […]

[3] = Conductivity of ETE-S polymerized in air; assay type: physicochemical
Method: The conductivity of ETE-S based wires was measured using two Au probes applied into individual xylem wires along the stem (Fig. 38) and found to be equal to 7.25 +- 3.38 S/cm (n=17). […] The high conductivity was retained for cm scale wires showing that good interconnectivity is achieved along the xylem wires. […] The conductivity of 10mg/ml solution is 10^-5 S/cm while for 50mg/ml is on the order of 10^-3S/CM. In the plants we typically administrate 5ml solution of 1mg/ml concentration. An estimation of the total volume of the xylem tubing in a rose cutting of 15cm is 0.15ml taking into account an average diameter of xylem to be 20um. For this volume and since all the solution is taken up form the plant we end up with concentrations of the ETE-S molecule in the order of 30mg/ml. From microscopy images we see that approximately only 10% of the xylem is filled, while the majority of the rest is coated with the material and for that volume we have concentrations up to 300mg/ml. This high concentration in the plant allows the material to organize and polymerize in a way that creates highly conducting wires.

[4] = Xylem supercapacitor, specific capacitance of xylem wire electrodes; assay type: physicochemical, rose; details: from slope of capacitance per area vs length of xylem wire
Description: Plant's anatomy upon functionalization with the conducting material provides an ideal architecture for developing supercapacitors in vivo. The long-range conducting xylem wires are parallel and electronically isolated to each other while are surrounded with cellular domains and extracellular space rich in electrolyte. Therefore we explored the charge storage capacity of the xylem wires. Two parallel xylem wires served as the electrodes (capacitor plates) and the plant tissue in between them the spacer. Two Au probes defined the electrodes contacts. In the schematic of Fig. 36.a we show the general structure and the wiring of a supercapacitor along with the optical micrograph of the corresponding supercapacitor in the plant Fig. 36.b.
From the slope of the discharging curve we calculate the capacitance of the device equal to 1.3 10^-4 F The capacitive behavior of the material is indicated and by the square shaped voltamogramm Fig. 43 in the potential range of -0.5V - 0.5V. In order to extract the specific capacitance of the xylem electrodes we measure devices of various dimensions. Xylem wires have typically diameter of 30-50um and lengths in the cm scale. In Fig. 36.d. we show the capacitance per area (diameter of xylem wire) vs the length. From the slope we calculated the specific capacitance and found it equal to 20F/cm3, a value in the typical range for conducting polymers. […]

[5] = tested on: young bean plant; experiment: Immersion of bean plant roots or stem in compound 1 solution, plant survival and growth; assay type: in vivo; details: roots or stem immersed in 1 mg/mL aqueous solution; replanted in gel
Method: Figure 16A-E illustrates another experiment, with references to the alphabetical parts of figure in parenthesis. A young bean plant having a plurality of roots was used as a test specimen. In (A) the roots of the young bean plant were planted in a plastic container having Seedhru® gel as a soil substitute.. Two of the roots of the bean plant were immersed in a vial 1600 (B) containing aqueous solution of compound 1 (1 mg/mL). […] As soon as or shortly after the two roots were immersed the color of the compound 1 solution shifted from white to pink (D) and then back to white again. The reason of the color shift is still being investigated. […] After 24 hours one of the roots was removed from the compound 1 solution and can be seen in (E) and in figure 17. The other root was left immersed in the compound 1 solution for 24 more hours (total 48hours). After 48 hours the second root was cut of the bean plant and can be seen in figure 18.. Note that the part of the root which was immersed in compound 1 is now coated with polymerized compound 1 as indicated by the darker color. […]

Molecule | onset potential of the polymerization [1] | electrical conductivity [2] | conductivity ([3]; 10mg/ml solution) | conductivity ([3]; 50mg/ml solution) | specific capacitance [4] | growth or survival of the plant [5]
c1scc2c1OCCO2 [EDOT] | 1.1 V | – | – | – | – | –
exo-EDOT-Thiophene-EDOT-alkoxylfonate [compound 1] | – | approximately 1.5 S/cm | 10^-5 S/cm | ~10^-3 S/CM | 20 F/cm3 | survives for at least two weeks; also recorded: showed further growth
